{
  "source": "patent US8815523B2",
  "about": "“Method for live-cell activity assay” (Korea Institute of Science and Technology, priority 2010, dated 2014)",
  "type_in_all_cases": "cell-based",
  "key": {"[1]": {"test_system": "Protein tyrosine phosphatase (PTP) in HeLa cells", "assay": "Nanowire sandwich assay of intracellular PTP activity with PTP inhibitors (MALDI-TOF of substrate peptide)", "conditions": "100 μM sodium orthovanadate and 40 μM α-bromo-4-hydroxyacetophenone given together, 40 minutes pre-incubation, then 1 hour sandwich incubation, FIG. 5C", "protocol": "Specifically, the silicon nanowires prepared in Example 1 were washed with 100% (v/v) isopropyl alcohol before use and dried at room temperature, and then, introduced in 2 ml of toluene solution containing 100 μl of APTMS (Aminopropyl trimethoxysilane), reacted at room temperature for 2 hours, and washed 3 times respectively with toluene, 100% ethanol and distilled water, and finally washed with PBS (Phosphate Buffered Saline) to complete silanization so that the surface of the silicon nanowire has positively charged ammonium group. […]\nThe cell-fixed nanowires were positioned down, the PTP substrate peptide-fixed nanowires were positioned up, and they were contacted with each other, and then, incubated in DMEM medium containing penicillin (100 units/ml), streptomycin (0.1 mg/ml), and 10% FBS at 37° C., 5% CO2 for 1 hour. After incubation, the cell-fixed silicon nanowires and the peptide-fixed nanowires were separated from each other, and the peptide-fixed nanowires were washed with PBS and introduced in a buffer containing 50 mM Tris-HCl, pH 7.5, 0.5 mM EDTA, and 1 mM DTT (Dithiothreitol), and TEV protease (10 units/150 μl, Invitrogen) were added and treated at room temperature for 2 hours, and then, desalting was conducted with Zip-TIP (MILLIPORE), and changes of peptides were analyzed by MALDI-TOF (Applied Biosystems). […]"}, "intracellular caspases [2]": {"test_system": "intracellular caspases", "assay": "Nanowire sandwich assay of intracellular caspase activity, TAMRA-labelled substrate peptide, fluorescence microscope", "conditions": "200 nM apoptosis inducing agent in medium, 4 hours; 555 nm excitation/590 nm emission; FIG. 6D", "experimental": "Since the fragments released into cells have TAMRA dye and can be identified by fluorescence microscope, activation of caspases may be confirmed based thereon.\nAs described in Example 5, peptides were fixed to nanowires using SMPH linker, and the peptide-fixed nanowires were positioned down, cell-fixed nanowire were positioned up, and they were contacted in a sandwich manner and incubated in DMEM containing penicillin (100 units/ml), streptomycin (0.1 mg/ml), 10% FBS and 200 nM Staurosporine (apoptosis inducing agent, Sigma) at 37° C., 5% CO2 for 4 hours."}, "intracellular caspases [3]": {"test_system": "intracellular caspases", "assay": "Nanowire sandwich assay of intracellular caspase activity, mass analysis (MALDI-TOF) of substrate peptide", "conditions": "500 nM Staurosporine, 18 hours; FIG. 8C"}},
  "data": [
    {"smiles": "O=C(CBr)c1ccc(O)cc1", "note": "[α-bromo-4-hydroxyacetophenone]", "values": [
      {"measurement": "1204 dalton peak (dephosphorylated PTP substrate peptide) in MALDI-TOF", "setting": "[1]", "result": "remarkably reduced"}
    ]},
    {"smiles": "[Na+].[Na+].[Na+].[O]=[V]([O-])([O-])[O-]", "note": "[sodium orthovanadate]", "values": [
      {"measurement": "1204 dalton peak (dephosphorylated PTP substrate peptide) in MALDI-TOF", "setting": "[1]", "result": "remarkably reduced"}
    ]},
    {"smiles": "CN[C@@H]1C[C@H]2O[C@@](C)([C@@H]1OC)n1c3ccccc3c3c4c(c5c6ccccc6n2c5c31)C(=O)NC4", "note": "[Staurosporine]", "values": [
      {"measurement": "intracellular caspase activation: TAMRA dye-containing peptide fragments released into the cells", "setting": "intracellular caspases [2]", "result": "intracellular caspases are activated"},
      {"measurement": "cleavage of caspase substrate peptide (mass peak of 1041 dalton)", "setting": "intracellular caspases [3]", "result": "cleaved by caspase activated by staurosporine"}
    ]}
  ]
}
